Reference: patent publication US12570670B2, “Compounds, compositions, and methods for treating fibrosis” (YALE UNIVERSITY, priority 2019, dated 2026)
Where two headings read alike, the source gives them in different places.

Assays:
[1] = system: JNK; assay: JNK phosphorylation in wild type MEFs; type: cell-based, mouse
Procedure: (§1) C2C12 myoblasts were cultured as described previously. Substantively, wild type (mkp-5^+/+) and MKP5-deficient (mkp-5^−/−) mouse embryo fibroblasts (MEFs) were generated from female mice at days 13-14 of pregnancy and established by spontaneous immortalization. C2C12 myoblasts and MEFs were treated with 1 at the indicated concentrations for 24 h. For immunoblotting, C2C12 myoblasts or MKP5 wild type and MKP5-deficient fibroblasts were lysed on ice in lysis buffer and clarified by centrifugation at 20,800×g at 4° C. for 20 min. Protein concentration was determined using BCA reagent according to the manufacturer's instructions (Pierce). Recombinant human TGF-β1 (240-B-002) was purchased from R&D Systems. For phospho-MAPK and MAPK immunoblotting, lysates were resolved by SDS-PAGE and transferred onto nitrocellulose membranes (Bio-Rad). Membranes were blocked with 5% nonfat dry milk or 5% BSA in Tris-buffered saline/Tween 20 (TBS-T) for 1 h at room temperature or overnight at 4° C. Primary antibodies were diluted in 5% BSA or 5% nonfat dry milk in TBS-T. MAPK and Smad2 activation were calculated as the ratio of the indicated phosphorylated MAPK or phosphorylated Smad2 to total MAPK or Smad2, respectively by direct fluorescence quantitation using the Odyssey CLx Imaging System. Images were processed with the LI-COR Image Studio Software.

[2] = target: T1, STEP-46 (Homo sapiens, UniProt P54829); assay: STEP-46 pNPP counterscreen; type: biochemical; conditions: pNPP assay, FIG. 15; read-out: IC50 against STEP-46
T1 sequence (P54829 1-565): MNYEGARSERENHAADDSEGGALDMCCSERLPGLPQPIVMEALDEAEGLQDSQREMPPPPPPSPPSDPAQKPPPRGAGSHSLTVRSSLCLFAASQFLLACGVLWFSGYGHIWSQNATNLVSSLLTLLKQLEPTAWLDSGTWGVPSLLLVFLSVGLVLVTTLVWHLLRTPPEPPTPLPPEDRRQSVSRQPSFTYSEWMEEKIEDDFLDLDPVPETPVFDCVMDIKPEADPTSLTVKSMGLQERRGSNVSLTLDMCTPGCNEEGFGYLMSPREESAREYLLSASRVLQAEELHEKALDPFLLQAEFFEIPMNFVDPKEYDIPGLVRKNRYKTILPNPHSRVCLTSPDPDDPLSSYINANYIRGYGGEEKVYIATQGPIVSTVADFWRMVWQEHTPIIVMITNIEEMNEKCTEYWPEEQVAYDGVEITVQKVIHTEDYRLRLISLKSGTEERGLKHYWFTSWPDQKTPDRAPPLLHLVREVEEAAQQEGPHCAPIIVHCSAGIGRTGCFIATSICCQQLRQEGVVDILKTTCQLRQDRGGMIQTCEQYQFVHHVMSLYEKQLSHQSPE
Procedure: (§2) To test for 1 activity on STEP-46, a pNPP assay was employed with 1.5 μM STEP46 and 10 mM pNPP. After 30 min at room temperature, absorbance at 405 nm was measured. For comparison, MKP5-CD was tested in the pNPP assay under identical conditions. For PTP1B, the Millipore PTP1B assay kit (#539736) was performed as recommended by the manufacturer except that malachite green was used for detection.

[3] = system: p38α MAPK; assay: p38α MAPK activation in C2C12 myoblasts (pMAPK/MAPK immunoblot); type: cell-based, mouse
Procedure: as §1

[4] = system: p38α MAPK; assay: p38α MAPK phosphorylation in wild type MEFs; type: cell-based, mouse
Procedure: as §1

[5] = system: JNK; assay: JNK activation in C2C12 myoblasts (pMAPK/MAPK immunoblot); type: cell-based, mouse
Procedure: as §1

[6] = target: T2, MKP5-CD (Homo sapiens, UniProt Q9Y6W6); assay: Phosphate sensor kinetic assay with full-length p38α MAPK as substrate; type: biochemical; conditions: 25 μM inhibitor, varying p38α MAPK
T2 construct: The catalytic domain of MKP5 (MKP5-CD, residues 320-467) was inserted into a pET-28a vector; His-tag (N, cleaved yes); made in house; host or cells: E. coli BL21 (DE3)
T2 sequence (Q9Y6W6 320-467): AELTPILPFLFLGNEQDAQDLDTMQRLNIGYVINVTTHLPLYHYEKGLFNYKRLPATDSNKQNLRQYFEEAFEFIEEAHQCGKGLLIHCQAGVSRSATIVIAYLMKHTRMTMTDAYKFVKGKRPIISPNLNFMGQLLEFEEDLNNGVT
Procedure: The phosphate sensor protein (PS) was purchased from Life Technologies (Lot #1962036B). To characterize the activity of MKP5-CD against full length p38α MAPK, 5 nM MKP5-CD and 0.5 μM PS were combined in 50 mM Tris (pH 7.6), 25 mM NaCl, 0.01% Triton X100 and […] and added to a Corning #4511 384-well plate. Using an Echo 550 liquid handler (LabCyte Inc.), either 25 μM compound 1 or neat DMSO were added to a final DMSO concentration of 0.2%. Reactions were initiated with up to 300 μM p38α MAPK, a concentration approximately 5 times the KM of MKP5-CD39, and allowed to proceed at ambient temperature for 20 minutes. Fluorescence was continuously monitored by Tecan Infinite M1000 with excitation at 425 f 5 nm and emission at 454 f 5 nm. Raw fluorescence was converted to phosphate release using a standard curve generated the same day as kinetic experiments. The initial velocity was determined for each well based on reaction progress in the first 120 seconds. These velocities were then plotted against substrate concentration and fit to a mixed-mechanism inhibition curve.

[7] = system: MKP5-CD Y435A, Y435S, Y435W mutants; assay: Binding and inhibition of Tyr435 mutant MKP5-CD constructs; type: biochemical; conditions: FIG. 3C
Procedure: The catalytic domain of MKP5 (MKP5-CD, residues 320-467) was inserted into a pET-28a vector for expression. Mutant constructs were generated according to the QuikChange II (Agilent) site directed mutagenesis protocol. Constructs were transformed into BL21 (DE3) cells and grown in LB containing 100 μg/mL kanamycin to an OD of 0.8. Protein expression was induced with 1 mM IPTG, and cells were harvested after overnight incubation at 22° C.
Binding interactions between MKP5-CD and 1 were carried out using microscale thermophoresis (MST) on a Monolith NT.115Pico instrument. MKP5-CD was labeled for MST using NanoTemper Monolith NTTM Protein Labeling Kit RED-NHS 2nd Generation (#MO-L011). Briefly, MKP5-CD was transferred into the provided labeling buffer and diluted to 20 μM. Dye was added in a 2-fold molar excess and allowed to incubate 30 minutes at room temperature. Excess dye was removed using the provided column equilibrated in 50 mM Tris pH 8.0, 150 mM NaCl, 0.05% Tween-20. A fixed amount of labeled wild-type or mutant MKP5-CD was combined with up to 200 μM 1 and loaded into premium capillaries. MST experiments were carried out at 40% IR power for 20 seconds. Normalized fluorescence (Fnorm) values at a given time were plotted against inhibitor concentration, and the Kd was determined by fitting with a hyperbolic binding curve. […]

[8] = system: ERK1/2; assay: ERK1/2 activation in C2C12 myoblasts (pMAPK/MAPK immunoblot); type: cell-based, mouse; conditions: even at the highest concentration
Procedure: as §1

[9] = target: T3, catalytic domain of MKP1 (MKP1-CD) (Homo sapiens, UniProt P28562); assay: Malachite green assay of MKP1-CD; type: biochemical
T3 construct: MKP1-CD (human aa 172-314); purchased ARVYS Proteins (Trumbull, CT)
T3 sequence (P28562 172-314): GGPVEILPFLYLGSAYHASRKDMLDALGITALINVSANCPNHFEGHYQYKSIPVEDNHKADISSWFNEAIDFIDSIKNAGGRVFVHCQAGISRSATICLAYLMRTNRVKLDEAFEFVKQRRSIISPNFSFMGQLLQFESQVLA
Procedure: Compound 1 selected from the screen was tested for activity against MKP1 and MKP5 using the malachite green assay. For MKP5-CD, the same conditions for the screening assay were used. For MKP1-CD, the following conditions were used: 1 μM MKP1-CD, 50 μM pTpY, 120 min at 30° C.

[10] = target: T4, PTP-1B (Homo sapiens, UniProt P18031); assay: PTP1B counterscreen (Millipore kit, malachite green detection); type: biochemical; conditions: FIG. 15; read-out: IC50 against PTP-1B
T4 construct: purchased Millipore 539736
T4 sequence (P18031 1-435): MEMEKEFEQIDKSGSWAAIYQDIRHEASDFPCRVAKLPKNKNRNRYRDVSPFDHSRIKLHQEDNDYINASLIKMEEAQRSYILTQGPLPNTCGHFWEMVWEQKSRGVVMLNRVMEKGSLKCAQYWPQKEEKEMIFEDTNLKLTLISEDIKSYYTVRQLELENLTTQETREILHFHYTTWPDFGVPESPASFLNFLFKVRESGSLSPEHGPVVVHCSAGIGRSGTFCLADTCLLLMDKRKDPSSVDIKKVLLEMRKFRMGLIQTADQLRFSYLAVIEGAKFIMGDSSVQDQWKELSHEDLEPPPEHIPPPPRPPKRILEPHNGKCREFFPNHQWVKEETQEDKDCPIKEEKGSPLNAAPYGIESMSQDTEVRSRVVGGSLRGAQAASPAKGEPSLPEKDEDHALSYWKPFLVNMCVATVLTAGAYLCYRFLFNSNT
Procedure: as §2

[11] = system: ERK1/2; assay: ERK1/2 phosphorylation in wild type MEFs; type: cell-based, mouse
Procedure: as §1

[12] = system: Smad2; assay: TGF-β1-mediated Smad2 phosphorylation in wild type MEFs; type: cell-based, mouse; conditions: TGF-β1 1 ng/ml 10 minutes
Procedure: as §1

[13] = target: T5, MKP5-CD (catalytic domain of MKP5, residues 320-467) (Homo sapiens, UniProt Q9Y6W6); assay: Malachite green phosphatase assay of MKP5-CD with p38α MAPK phosphopeptide substrate; type: biochemical
T5 construct: The catalytic domain of MKP5 (MKP5-CD, residues 320-467) was inserted into a pET-28a vector; His-tag (N, cleaved yes); made in house; host or cells: E. coli BL21 (DE3)
T5 sequence (Q9Y6W6 320-467): T2 sequence (Q9Y6W6 320-467)
Procedure: A small molecule collection was screened for activity against MKP5-CD using a malachite green assay in 384-well format. MKP5-CD and p38α MAPK phosphopeptide (DDE(Nle)(pT)G(pY)VATR) substrate were diluted into PTP buffer (50 mM Tris pH 7.2, 1 mM EDTA, 0.1% β-mercaptoethanol, 0.01% Triton X-100). The screen was performed in two distinct phases. An initial screen against a subset of the compound library was carried out in the following conditions: 1.5 μM MKP5-CD, 25 μM phosphopeptide, 30 min at 37° C. A second follow-up screen was performed with the following modifications: 0.5 μM MKP5-CD, 50 μM phosphopeptide, 15 min at 30° C. Test compounds (20 nL) were dispensed with either an Aquarius (Tecan) pintool system (initial phase) or Echo 550 (Labcyte) acoustic dispenser (follow-up phase). In both phases, the test compound concentration was 20 μM in the 10 μL reaction and the final DMSO was 0.2%. […] The plate was incubated for 10-15 min at room temperature to allow color development and absorbance at 620 nm measured. The signal-to-background (S/B) ratio was calculated from the mean absorbance of vehicle-treated wells with and without enzyme (negative and positive controls; n=32 per condition). Percent inhibition of test wells was calculated from the mean positive and negative controls on each plate. […]

[14] = target: T2, MKP5-CD; assay: Microscale thermophoresis binding assay; conditions: fluorescently-labeled MKP5-CD, FIG. 1D; read-out: dissociation constant (Kd)
Procedure: Binding interactions between MKP5-CD and 1 were carried out using microscale thermophoresis (MST) on a Monolith NT.115Pico instrument. MKP5-CD was labeled for MST using NanoTemper Monolith NTTM Protein Labeling Kit RED-NHS 2nd Generation (#MO-L011). Briefly, MKP5-CD was transferred into the provided labeling buffer and diluted to 20 μM. Dye was added in a 2-fold molar excess and allowed to incubate 30 minutes at room temperature. Excess dye was removed using the provided column equilibrated in 50 mM Tris pH 8.0, 150 mM NaCl, 0.05% Tween-20. A fixed amount of labeled wild-type or mutant MKP5-CD was combined with up to 200 μM 1 and loaded into premium capillaries. MST experiments were carried out at 40% IR power for 20 seconds. Normalized fluorescence (Fnorm) values at a given time were plotted against inhibitor concentration, and the Kd was determined by fitting with a hyperbolic binding curve. Experiments were performed in triplicate and data are presented as means±SD.

CSc1scc2c1-c1nc(SCC(=O)C(C)(C)C)ncc1CC2 [Compound 1, 3,3-Dimethyl-1-((9-(methylthio)-5,6-dihydrothieno[3,4-h]quinazolin-2-yl)thio)butan-2-one]
phosphorylation of JNK [1]: dose-dependent increase
IC50 [2]: > 200 µM
activation of p38α MAPK ([3]; 24 h): increased in a dose-dependent manner
induction of p38α MAPK activity ([3]; highest concentration): 2.0 fold
phosphorylation of p38α MAPK [4]: dose-dependent increase
JNK activation ([5]; 24 h): increased upon treatment of C2C12 myoblasts but with less effectiveness as compared with p38 MAPK
induction of JNK activity ([5]; highest concentration): 1.4 fold
mode of inhibition [6]: mixed competitive mode of inhibition
α of mixed-mechanism inhibition fit [6]: ≈ 4.6
binding to and inhibition of Tyr435 mutants [7]: only capable of binding to and inhibiting the activity of the Y435W mutant
activation status of ERK1/2 [8]: did not alter
IC50 ([9]; FIG. 1F, read-out: IC50 towards the catalytic domain of MKP1): > 60 µM
reduction in potency for MKP1 relative to MKP5 ([9]; MKP1 versus MKP5): 16 fold
IC50 [10]: > 100 µM
phosphorylation of ERK1/2 [11]: not ERK1/2
TGF-β1-mediated Smad2 phosphorylation [12]: inhibited
IC50 [13]: ~4.2 µM
IC50 ([13]; resynthesized compound, p38α MAPK phosphopeptide substrate, FIG. 1E, read-out: IC50 against MKP5-CD): 3.9 ± 0.6 µM
Kd [14]: 1 ± 0.2 µM
